Laboratory results published in patent US20210255193A1, “LYSINE REACTIVE PROBES AND USES THEREOF” (The Scripps Research Institute, priority 2017, published 2021).

What was measured:
Experiment in all cases: competitive isoTOP-ABPP
Assay type in all cases: binding
[1] = biological target: T1, TPD52L2 Tumor protein D54 (Homo sapiens, UniProt O43399); parameters: key to isoTOP-ABPP reactivity ratio at lysine O43399_K90: R = MS1 peak area ratio, DMSO (heavy) / compound-treated (light); details: 50 uM, in vitro; for isoTOP-ABPP reactivity ratio at lysine O43399_K90: 231 sol; for isoTOP-ABPP ratio (R) at liganded lysine O43399_K90: sol, 231
T1 construct: isoTOP-ABPP experiments performed in cell lysates (in vitro); endogenous in cells; host or cells: MDA-MB-231 soluble lysate
Procedure: (§1) In vitro covalent fragment treatment for isoTOP-ABPP. All compounds were made up as solutions in DMSO (100×) and were used at a final concentration of 50 μM for activated esters and 100 μM for guanidinylating agents. For each profiling sample, 0.5 ml of lysate was treated with 5 μl of the 100× compound stock solution or 5 μl of DMSO. Samples were treated with activated esters for
(§2) STP-alkyne labeling and click chemistry. For concentration-dependent reactivity measurements by isoTOP-ABPP, 0.5 ml proteome aliquots were treated at ambient temperature with 1 mM STP-alkyne 1 (5 μl of 100 mM stock in DMSO) and 0.1 mM STP alkyne 1 (5 μl of 10 mM stock in DMSO), respectively. For competitive isoTOP-ABPP, after in vitro fragment treatment (detailed above), the samples were labeled for 1 h at ambient temperature with 0.1 mM STP-alkyne 1 (5 μl of 10 mM stock in DMSO). Samples were conjugated by copper-mediated azide-alkyne cycloaddition (CuAAC) to either the light (1 mM STP-alkyne or fragment treated) or heavy (0.1 mM STP-alkyne or DMSO treated) TEV tags (10 μl of 5 mM stocks in DMSO, final concentration=100 μM) using tris(2-carboxyethyl)phosphine hydrochloride
(§3) R value calculation and processing. The ratios of light and heavy MS1 peaks for each unique peptide were quantified with a CIMAGE software using default parameters (3 MS1 acquisitions per peak and signal to noise threshold set to 2.5). For reactivity measurements by isoTOP-ABPP, the R value was calculated from the ratio of MS1 peak areas, comparing the 1 mM STP alkyne sample (light TEV tag) with the 0.1 mM STP alkyne sample (heavy TEV tag). For competitive isoTOP-ABPP, the R value was calculated from the ratio of MS1 peak areas, comparing the DMSO treated sample (heavy TEV tag) with the compound treated sample (light TEV tag). […] Ratios for unique peptide entries are calculated for each experiment; overlapping peptides with the same modified lysine (for example, different charge states, MudPIT chromatographic steps or tryptic termini) are grouped together and the median ratio is reported as the final ratio (R). The peptide ratios reported by CIMAGE were further filtered to ensure the removal or correction of low-quality ratios in each individual data set. The quality filters applied were the following: removal of half tryptic peptides; for ratios with high standard deviations from the median (90% of the median or above) the lowest ratio was taken instead of the median; removal of peptides with R=20 and only a single MS2 event triggered during the elution of the parent ion; manual annotation of all the peptides with ratios of 20, removing any peptides with low quality elution profiles that remained after the previous curation steps (only done for competitive isoTOP-ABPP).
(§4) Cross-data processing for fragment screening. For compound treated samples, biological replicates of the same condition were averaged, if the standard deviation was below 60% of the mean; otherwise, for lysines with at least one R value <4 for a particular compound, the lowest value of the ratio set was taken. For lysines, where all R values for a particular compound were ≥4, the average was reported. For peptides containing several possible modified lysines, the lysine with the highest number of quantification events was used for analysis and the remaining, redundant peptides were reported as alternative modification sites. Peptides included in the aggregate dataset (those used for further bioinformatics and statistical analyses) were required to have been quantified in 2 experiments for competitive isoTOP-ABPP. Lysines were categorized as liganded, if they had at least one ratio R≥4 (hit fragments). For liganded lysines with R=20 for all liganding events, lysines were required to have been quantified with R=20 in two separate experiments and were further required to have been quantified with R<20 in one additional experiment.

ADK Adenosine kinase = biological target: T2, ADK Adenosine kinase (Homo sapiens, UniProt P55263); parameters: key to isoTOP-ABPP reactivity ratio at lysine P55263_K88: R = MS1 peak area ratio, DMSO (heavy) / compound-treated (light); details: 50 uM, in vitro; for isoTOP-ABPP reactivity ratio at lysine P55263_K88: 231 sol; for isoTOP-ABPP ratio (R) at liganded lysine P55263_K88: sol, 231
T2 construct: isoTOP-ABPP experiments performed in cell lysates (in vitro); endogenous in cells; host or cells: soluble proteome of human cancer cell lines (MDA-MB-231, Ramos, Jurkat)
Procedure: as §1, §2, §3, §4

PLIN3 Perilipin-3 = biological target: T3, PLIN3 Perilipin-3 (Homo sapiens, UniProt O60664); parameters: key to isoTOP-ABPP reactivity ratio at lysine O60664_K257 / isoTOP-ABPP reactivity ratio at lysine O60664_K140: R = MS1 peak area ratio, DMSO (heavy) / compound-treated (light); capped at 20; details: 50 uM, in vitro; for isoTOP-ABPP reactivity ratio at lysine O60664_K140 / isoTOP-ABPP reactivity ratio at lysine O60664_K257: 231 sol; for isoTOP-ABPP ratio (R) at liganded lysine O60664_K140 / isoTOP-ABPP ratio (R) at liganded lysine O60664_K257: sol, 231
T3 construct: isoTOP-ABPP experiments performed in cell lysates (in vitro); endogenous in cells; host or cells: MDA-MB-231 soluble lysate
T3 sequence (O60664 1-434): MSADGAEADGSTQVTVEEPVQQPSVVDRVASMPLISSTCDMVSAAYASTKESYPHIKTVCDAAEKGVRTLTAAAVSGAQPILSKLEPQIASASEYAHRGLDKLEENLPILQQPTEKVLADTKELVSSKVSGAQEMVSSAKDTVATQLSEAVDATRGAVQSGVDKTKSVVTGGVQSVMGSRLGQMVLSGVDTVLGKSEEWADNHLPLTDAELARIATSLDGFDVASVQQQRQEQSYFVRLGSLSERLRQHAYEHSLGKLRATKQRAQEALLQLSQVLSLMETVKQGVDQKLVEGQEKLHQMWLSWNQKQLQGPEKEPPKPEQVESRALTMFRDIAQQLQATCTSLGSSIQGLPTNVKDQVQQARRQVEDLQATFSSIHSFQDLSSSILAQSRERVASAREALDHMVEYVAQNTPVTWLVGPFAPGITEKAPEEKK
Procedure: as §1, §2, §3, §4

[2] = biological target: T4, KPNA2 Importin subunit alpha-2 (Homo sapiens, UniProt P52292); details: 50 uM, in vitro; for isoTOP-ABPP reactivity ratio at lysine P52292_K459: 231 sol; for isoTOP-ABPP ratio (R) at liganded lysine P52292_K459: sol, 231
T4 construct: isoTOP-ABPP experiments performed in cell lysates (in vitro); endogenous in cells; host or cells: soluble proteome of human cancer cell lines (MDA-MB-231, Ramos, Jurkat)
Procedure, shortened: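 Probe: STP-alkyne, 0.1 mM, 1 h RT, after fragment pretreatment of lysate (esters 50 μM; guanidinylators 100 μM). Tags: light = compound, heavy = DMSO, via CuAAC. Replicates averaged if SD <60% of mean; otherwise lowest ratio used when any R <4.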

[3] = biological target: T5, ABHD10 Abhydrolase domain-containing protein 10, mitochondrial (Homo sapiens, UniProt Q9NUJ1); parameters: key to isoTOP-ABPP reactivity ratio at lysine Q9NUJ1_K185: R = MS1 peak area ratio, DMSO (heavy) / compound-treated (light); capped at 20; details: 50 uM, in vitro; for isoTOP-ABPP reactivity ratio at lysine Q9NUJ1_K185: 231 sol; for isoTOP-ABPP ratio (R) at liganded lysine Q9NUJ1_K185: sol, 231
T5 construct: endogenous in cells; host or cells: MDA-MB-231 lysate
T5 sequence (Q9NUJ1 53-306): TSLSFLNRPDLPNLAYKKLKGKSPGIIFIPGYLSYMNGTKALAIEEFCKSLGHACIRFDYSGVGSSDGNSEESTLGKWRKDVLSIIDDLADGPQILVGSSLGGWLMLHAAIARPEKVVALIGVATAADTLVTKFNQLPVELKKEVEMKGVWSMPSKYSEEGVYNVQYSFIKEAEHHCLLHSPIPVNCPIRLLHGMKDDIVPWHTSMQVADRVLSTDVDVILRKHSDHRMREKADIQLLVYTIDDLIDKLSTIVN
Procedure: as §1, §2, §3, §4

T1 sequence (O43399 whole entry): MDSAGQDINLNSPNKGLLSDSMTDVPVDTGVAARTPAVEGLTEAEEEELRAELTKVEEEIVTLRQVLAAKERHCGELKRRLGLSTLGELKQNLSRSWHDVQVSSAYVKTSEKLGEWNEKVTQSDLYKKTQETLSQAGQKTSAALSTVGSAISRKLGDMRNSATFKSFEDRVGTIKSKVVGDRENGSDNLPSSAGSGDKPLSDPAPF
T2 sequence (P55263 whole entry): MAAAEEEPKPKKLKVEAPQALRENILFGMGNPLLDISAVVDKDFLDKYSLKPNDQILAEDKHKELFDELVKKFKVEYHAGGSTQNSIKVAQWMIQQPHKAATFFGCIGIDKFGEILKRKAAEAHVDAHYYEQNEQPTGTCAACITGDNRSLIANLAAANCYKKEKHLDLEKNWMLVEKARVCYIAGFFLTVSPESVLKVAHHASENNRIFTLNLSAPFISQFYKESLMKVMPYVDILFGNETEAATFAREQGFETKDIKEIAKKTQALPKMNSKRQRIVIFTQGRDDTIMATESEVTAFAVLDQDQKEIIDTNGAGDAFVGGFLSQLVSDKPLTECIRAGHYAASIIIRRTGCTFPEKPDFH

| Structure (SMILES) | isoTOP-ABPP reactivity ratio at lysine O43399_K90 [1] | isoTOP-ABPP reactivity ratio at lysine P55263_K88 (ADK Adenosine kinase) | isoTOP-ABPP reactivity ratio at lysine O60664_K140 (PLIN3 Perilipin-3) | isoTOP-ABPP reactivity ratio at lysine O60664_K257 (PLIN3 Perilipin-3) | isoTOP-ABPP reactivity ratio at lysine P52292_K459 [2] | isoTOP-ABPP reactivity ratio at lysine Q9NUJ1_K185 [3] | isoTOP-ABPP ratio (R) at liganded lysine O43399_K90 [1] | isoTOP-ABPP ratio (R) at liganded lysine P55263_K88 (ADK Adenosine kinase) | isoTOP-ABPP ratio (R) at liganded lysine O60664_K140 (PLIN3 Perilipin-3) | isoTOP-ABPP ratio (R) at liganded lysine O60664_K257 (PLIN3 Perilipin-3) | isoTOP-ABPP ratio (R) at liganded lysine P52292_K459 [2] | isoTOP-ABPP ratio (R) at liganded lysine Q9NUJ1_K185 [3] |
| --- | --- | --- | --- | --- | --- | --- | --- | --- | --- | --- | --- | --- |
| O=C(CCc1coc2cc(F)ccc2c1=O)Oc1c(F)c(F)c(F)c(F)c1F [fragment 26, Pentafluorophenyl 3-(7-fluoro-4-oxo-4H-chromen-3-yl)propanoate] | 1.3 | 0.9 | 1.2 | 4.1 | 8.2 | 1.5 | – | – | – | – | – | – |
| O=C(CN1C(=O)c2ccccc2C1=O)Oc1c(F)c(F)c(F)c(F)c1F [fragment 27, Pentafluorophenyl 2-(1,3-dioxoisoindolin-2-yl)acetate] | 1.4 | 0.8 | 1.9 | 1.8 | 1.3 | 1.9 | – | – | – | – | – | – |
| CCn1cc(C(=O)Oc2c(F)c(F)c(F)c(F)c2F)c(=O)c2ccc(C)nc21 [fragment 28, Pentafluorophenyl 1-ethyl-7-methyl-4-oxo-1,4-dihydro-1,8-naphthyridine-3-carboxylate] | 1.1 | 0.8 | 1.2 | 1.1 | 1.3 | 1.2 | – | – | – | – | – | – |
| O=C(CCc1cn(-c2ccccc2)nc1-c1ccccc1)Oc1ccc([N+](=O)[O-])cc1[N+](=O)[O-] [fragment 29, 2,4-Dinitrophenyl 3-(1,3-diphenyl-1H-pyrazol-4-yl)propanoate] | 3.1 | 1.0 | 2.1 | 3.5 | 2.0 | 1.3 | – | – | – | – | – | – |
| O=C(Oc1ccc([N+](=O)[O-])cc1[N+](=O)[O-])C(c1ccccc1)c1ccccc1 [fragment 30, 2,4-Dinitrophenyl 2,2-diphenylacetate] | 5.5 | 0.8 | 4.5 | 2.9 | 4.3 | 2.4 | – | – | – | – | – | – |
| COc1cc(CCC(=O)Oc2ccc([N+](=O)[O-])cc2[N+](=O)[O-])cc(OC)c1OC [fragment 33, 2,4-Dinitrophenyl 3-(3,4,5-trimethoxyphenyl)propanoate] | 1.3 | 0.9 | 1.1 | 2.2 | 1.8 | 2.1 | – | – | – | – | – | – |
| O=C(Oc1ccc([N+](=O)[O-])cc1[N+](=O)[O-])c1ccc2ccccc2n1 [fragment 35, 2,4-Dinitrophenyl quinoline-2-carboxylate] | – | – | – | – | – | – | 1.3 | 0.6 | 1.1 | 1.2 | 1.3 | 1.3 |
| O=C(CCc1coc2cc(F)ccc2c1=O)Oc1ccc([N+](=O)[O-])cc1[N+](=O)[O-] [fragment 36, 2,4-Dinitrophenyl 3-(7-fluoro-4-oxo-4H-chromen-3-yl)propanoate] | – | – | – | – | – | – | 1.3 | 20.0 | 1.5 | 3.9 | 9.2 | 1.4 |
| O=C(Oc1ccc([N+](=O)[O-])cc1[N+](=O)[O-])c1ccc(-c2ccccc2)cc1 [fragment 37, 2,4-Dinitrophenyl [1,1′-biphenyl]-4-carboxylate] | – | – | – | – | – | – | 1.6 | 0.8 | – | 3.5 | 0.9 | 1.2 |
| O=C(Oc1ccc([N+](=O)[O-])cc1[N+](=O)[O-])c1ccc(Oc2ccccc2)cc1 [fragment 39, 2,4-Dinitrophenyl 4-phenoxybenzoate] | – | – | – | – | – | – | 1.3 | 0.9 | 2.0 | 2.2 | 1.0 | 1.0 |
| O=C(Oc1ccc([N+](=O)[O-])cc1[N+](=O)[O-])c1ccccc1Nc1cccc(C(F)(F)F)c1 [fragment 40, 2,4-Dinitrophenyl 2-((3-(trifluoromethyl)phenyl)amino)benzoate] | – | – | – | – | – | – | 1.2 | 0.9 | – | 1.6 | 1.7 | 0.9 |
